In article PMC10887108, “Novel Brain-Penetrant, Small-Molecule Tubulin Destabilizers for the Treatment of Glioblastoma” (Biomedicines, 2024):
Where “and” joins values, the source holds several entries; their conditions need not be identical. Identical values can stand only once.

Experiments:
[1] = Metabolite profiling in cryopreserved hepatocytes; type: in vitro ADME; settings: mouse, rat, dog, monkey, and human hepatocytes, 120 min
Procedure: Metabolite profiling was carried out by WuXi DMPK (Nanjing, China). RGN3067 (10 μM) was profiled in CD-1 mice (BioIVT, Westbury, NY, USA), SD rats (BioIVT), beagle dogs (BioIVT), cynomolgus monkeys (Research Institute for Liver Diseases [RILD], Shanghai, China), and human cryopreserved hepatocytes (BioIVT). The positive control was 7-ethoxycoumarin (30 μM). Compounds were added to hepatocytes (400 µL, 1 × 10^6/mL), and reactions were carried out at 37 °C in 5% CO2/saturated humidity for 120 min. Reactions were stopped by the addition of ice-cold ACN (400 μL). Samples were shaken at 300 rpm for 10 min, then centrifuged at 13,000× g for 10 min. Supernatants were evaporated under a stream of N2. Residue from the RGN3067 incubation was reconstituted with ACN: H2O (200 μL, v:v, 3:7), followed by centrifugation at 14,000 rpm for 10 min, and the supernatant was used for qualitative and semi-quantitative analysis using LC-UV/HRMS. A Shimadzu UFLC-20A with autosampler was used for chromatographic separation. Detection and structure were determined using a Thermo Q-Extractive mass spectrometer in full MS/MS^2 scan mode and Xcalibur Data Acquisition and Interpretation Software v4.2.

[2] = tested on: GBM12 patient-derived GB cells; experiment: CellTiter-Glo viability assay, patient-derived GBM12 cells; type: cell-based; settings: Homo sapiens, GBM12, 144 h, read-out: IC50 cell viability
Procedure: (§1) Short-term cultures of patient-derived cells GBM12, GBM15, GBM39 and GBM43 (used with permission Mayo Foundation) were seeded (1000 cells/well) in solid white Corning 384-well plates (Corning, NY, USA) and cultured overnight. Cells were treated with DMSO or RGN3067 in a 13-point dose response with a 1:3 serial dilution from an initial concentration of 100 μM. After 144 h, cell viability was measured using CellTiter-Glo (Promega, Madison, WI, USA). Data were normalized to DMSO control, and absolute IC50 values were calculated using GraphPad Prism 10 (San Diego, CA, USA).

[3] = tested on: GBM12, GBM15, GBM39 and GBM43 patient-derived GB cell lines; experiment: CellTiter-Glo viability assay, four patient-derived GB cell lines; type: cell-based; settings: Homo sapiens, 144 h, read-out: IC50 cell viability, range over four patient-derived GB cell lines
Procedure: as §1

[4] = tested on: U87 cells (microtubule network); experiment: Immunofluorescent staining of cellular β-tubulin; type: cell-based, human; settings: U87, compounds at their IC50 concentrations, 24 h
Procedure: U87 cells (4000/well) were plated in black 96-well plates (Perkin Elmer 6055302; Waltham, MA, USA) and grown overnight. Cells were treated with compounds for 24 h, fixed with 4% paraformaldehyde for 20 min, and permeabilized with FoxP3 permeabilization buffer (eBioscience/Thermo Fisher Scientific 00-5523-00; Waltham, MA, USA) for 10 min at RT. Cells were incubated with an anti-TUBB3 (Tuj1) antibody (1:1000; […] Technologies 60052; Vancouver, BC, Canada) labeled with Hoechst 33342 dye (1:2000; Thermo Fisher Scientific H3570; Waltham, MA, USA). Images (40×) were taken with an automated high-content imaging microscope (Operetta, Perkin Elmer; Waltham, MA, USA).

[5] = tested on: colchicine binding pocket of β-tubulin in MCF-7 cells; experiment: EBI competition colchicine-binding site cellular assay; type: cell-based, human; settings: MCF-7, compound 50 µM
Procedure: (C) EBI competition assay in MCF-7 breast cancer cells. […] Total proteins were lysed and subjected to Western blot analysis for β-tubulin. […] GAPDH was employed as the loading control. (D) Quantification of the Western blot in (C). […] Data are plotted as mean ± SD from at least three independent experiments. Analysis between groups in (B) was performed using a one-way ANOVA with Tukey’s multiple comparison test.

[6] = Plasma pharmacokinetics after oral dosing; type: in vivo, CD-1 mice; settings: mouse, 100 mg/kg oral, CD-1 male mice
Procedure: Pharmacokinetic studies were carried out by DMPK at WuXi AppTec, Inc. (Cranbury, NJ, USA). The pharmacokinetics of RGN3067 were evaluated in three male CD-1 mice. RGN3067 formulated as a 10 mg/mL solution (20% DMSO, 80% PEG400: PVP 95:5) was administered by oral gavage at a dose of 100 mg/kg. Plasma samples were drawn at 0.5, 1, 2, 4, 6, 10 and 24 h. Samples were analyzed by LC-MS/MS. A calibration curve was established using Waters ACQUITY UPLC BEH C18 column and formic acid in water and formic acid in acetonitrile as mobile phase. Tolbutamide and labetalol were used as internal standards for LC-MS/MS analysis. Compound was detected using electrospray ionization (ESI) positive detection. Pharmacokinetic parameters were calculated using the PO-noncompartmental linear model in Phoenix WinNonlin software v8.3 (Certara, Princeton, NJ, USA).

[7] = Maximum tolerated dose study; type: in vivo; settings: 25, 50, 100 or 200 mg/kg oral twice daily for 5 days + 5 days observation
Procedure: ; 6 mice per group, including vehicle control). One mouse from each group was euthanized for PK analysis at 6 h post-initial dose. The weight and physical states of the animals were monitored during the 5 days of treatment and for 5 days following drug administration. […]

[8] = tested on: GBM12 patient-derived xenograft; experiment: Subcutaneous GBM12 PDX efficacy model; type: in vivo, athymic nude female mice; settings: 100 mg/kg oral BID, 5 days on/2 days off, four cycles
Procedure: Animal protocols were approved by the Animal Care and Use Committee (ACUC) of the institutes and CRO labs. All studies were performed in compliance with the guidelines. GBM12 cells (5 × 10^6) were injected subcutaneously into athymic nude female mice aged 4–6 weeks. Subcutaneous (SC) tumor size was measured using an external caliper. The greatest longitudinal diameter (length) and the greatest transverse diameter (width) were determined while mice were scruffed and conscious. Tumor volume was calculated by the modified ellipsoidal formula: V = ½ (Length × Width^2). RGN3067 solution was prepared for each mouse. RGN3067 (9.91 mg) was dissolved in DMSO (17 µL) by vortexing for 30–60 s. Approximately 69 μL of PEG400: PVP (95:5, Sigma-Aldrich; St. Louis, MO, USA) solution was added and vortexed.
After tumors reached 100–150 mm^3, mice were dosed with RGN3067 solution (43 µL, 100 mg/kg) or vehicle control twice daily by oral gavage (total dose was 200 mg/kg). Mice were dosed using cycles of 5 days on/2 days off, for a total of four cycles. Mice were euthanized once the tumor reached 2000 mm^3.

CO[C@H]1C[C@@H](C(=O)NC(=O)Nc2ccc(Oc3ccc(Cl)cn3)c(C)c2)C1 [RGN3067]
number of metabolites detected and identified [1]: 10
IC50 [2]: 148 nM
IC50 [3]: 148 to 616 nM
effect on tubulin organization / MT network morphology [4]: varying levels of disruption of tubulin organization
formation of the EBI–β-tubulin adduct [5]: reduces the formation of the EBI–β-tubulin adduct
AUC [6]: 51200 ng·h/mL
Cmax [6]: 7810 ng/mL and 20 µM
Tmax [6]: 2 h
half-life [6]: 3.61 ± 1.94 h
body weight loss [7]: no statistically significant weight loss was observed
behavior, appearance and weight loss [8]: No changes in behavior or appearance (hair and skin) or statistically significant weight loss was observed
inhibition of tumor growth (tumor volume) ([8]; from day 14 to end of study): statistically significant inhibition of tumor growth
